Source: EP3409278B1, “HETEROCYCLIC PROTEIN KINASE INHIBITORS” (Tolero Pharmaceuticals, Inc., priority 2011, dated 2013)

The compounds below were run against Pim-1 kinase (Homo sapiens, UniProt P11309) (assay: Pim-1 kinase inhibition assay (Promega Kinase-Glo)). Conditions: not given.
Chain of Pim-1 kinase (P11309 whole entry): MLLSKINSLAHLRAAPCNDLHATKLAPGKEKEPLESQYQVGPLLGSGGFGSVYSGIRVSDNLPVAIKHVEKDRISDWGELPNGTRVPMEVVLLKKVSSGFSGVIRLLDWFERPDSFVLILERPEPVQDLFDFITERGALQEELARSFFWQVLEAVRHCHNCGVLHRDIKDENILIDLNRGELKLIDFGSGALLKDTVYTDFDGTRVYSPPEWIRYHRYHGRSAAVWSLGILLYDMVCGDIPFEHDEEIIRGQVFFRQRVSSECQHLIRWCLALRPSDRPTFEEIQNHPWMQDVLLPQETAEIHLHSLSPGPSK
Format: biochemical
From the text: One illustrative manner in which Pim-1 kinase activity can be determined is by quantifying the amount of ATP remaining in solution after an in vitro Pim-1 kinase reaction. The Kinase-Glo Assay Kit (Promega, Inc., Madison, WI) allows this. The amount of ATP remaining in the solution after the kinase reaction serves as a substrate for the luciferase to catalyze luciferin to oxyluciferin plus one photon of light. Thus, the luminescent signal read by the Luminoskan Ascent Instrument (Thermo Electron Corp., Milford, MA) correlates with the amount of ATP present after the kinase reaction and inversely correlates with the amount of kinase acitivity. […] These assays are set up in duplicate 50ul volumes in white, flat bottom 96 well plates. […] This solution is incubated at 30 degrees Celsius at 360rpm for two hours. Following the incubation, 50ul of Kinase-Glo reagent is added to each well, including all positive and negative control wells, and incubated at room temperature for 15 minutes. […] The IC50 values can then be calculated for each inhibitor tested.
`FC1(F)CCC(CNc2ccc3ncc(-c4cccc(OC(F)(F)F)c4)n3n2)CC1` [8-17, N-((4,4-difluorocyclohexyl)methyl)-3-(3-(trifluoromethoxy)phenyl)imidazo[1,2-b]pyridazin-6-amine] showed an IC50 of 173 nM. In the case of `OCCN1CCC(CNc2ccc3ncc(-c4cccc(OC(F)(F)F)c4)n3n2)CC1` [8-27, 2-(4-(((3-(3-(Trifluoromethoxy)phenyl)imidazo[1,2-b]pyridazin-6-yl)amino)methyl)piperidin-1-yl)ethanol], the IC50 is reported as 23 nM.

Same assay, conditions: Table IV; Kinase-Glo, 10uM ATP; read-out: IC50 on Pim1
With `CC1(O)CCC(Nc2ccn3ncc(-c4cccc(C(F)(F)F)c4)c3n2)CC1` (single isomer, unassigned) [8-55, 1-Methyl-4-((3-(3-(trifluoromethyl)phenyl)pyrazolo[1,5-a]pyrimidin-5-yl)amino)-trans-cyclohexanol] the IC50 was 54 nM. `CC(C)(O)CCNc1ccc2ncc(-c3cccc(OC(F)(F)F)c3)n2n1` [8-3, 2-Methyl-4-((3-(3-(trifluoromethoxy)phenyl)imidazo[1,2-b]pyridazin-6-yl)amino)butan-2-ol] gave an IC50 of 30 nM. `O[C@H]1CC[C@H](Oc2ccc3ncc(-c4cccc(OC(F)(F)F)c4)n3n2)CC1` [8-4, 4-((3-(3-(Trifluoromethoxy)phenyl)imidazo[1,2-b]pyridazin-6-yl)oxy)-trans-cyclohexanol] was tested, and the IC50 was 7 nM. `O[C@@H]1CC[C@@H](Nc2ccc3ncc(-c4cccc(OC(F)(F)F)c4)n3n2)C1` [8-5, (1R,3R)3-((3-(3-(Trifluoromethoxy)phenyl)imidazo[1,2-b]pyridazin-6-yl)amino)cyclopentanol] showed an IC50 of 36 nM. `CC(C)(O)CNc1ccc2ncc(-c3cccc(OC(F)(F)F)c3)n2n1` [8-6, 2-Methyl-1-((3-(3-(trifluoromethoxy)phenyl)imidazo[1.2-b]pyridazin-6-yl)amino)propan-2-ol] showed an IC50 of 30 nM. Compound `O[C@H]1C[C@H](CNc2ccc3ncc(-c4cccc(OC(F)(F)F)c4)n3n2)C1` [8-7, 3-(((3-(3-(Trifluoromethoxy)phenyl)imidazo[1,2-b]pyridazin-6-yl)amino)methyl)-trans-cyclobutanol] has an IC50 of 10 nM. `O=S1(=O)CCC(Nc2ccc3ncc(-c4cccc(OC(F)(F)F)c4)n3n2)CC1` [8-14, 4-((3-(3-(Trifluoromethoxy)pheny/)imidazo[1,2-]pyridazin-6-yl)amino)tetrahydro-2H-thiopyran 1,1-dioxide] showed an IC50 of 1190 nM. Work on `O=S1(=O)CCN(c2ccc3ncc(-c4cccc(OC(F)(F)F)c4)n3n2)CC1` [8-15, 4-(3-(3-(Trifluoromethoxy)phenyl)imidazo[1,2-b]pyridazin-6-yl)thiomorpholine 1,1-dioxide] yielded an IC50 of 2830 nM. `CC(C)O[C@H]1CC[C@H](Nc2ccc3ncc(-c4cccc(OC(F)(F)F)c4)n3n2)CC1` [8-16, 4-(trans-Isopropoxycyclohexyl)-3-(3-(trifluoromethoxy)phenyl)imidazo[1,2-b]pyridazin-6-amine] showed an IC50 of 503 nM. With `FC(F)(F)Oc1cccc(-c2cnc3ccc(NCC4CCSCC4)nn23)c1` [8-18, N-((tetrahydro-2H-thiopyran-4-yl)methyl)-3-(3-(trifluoromethoxy)phenyl)imidazo[1,2-b]pyridazin-6-amine] the IC50 was 53 nM. Work on `FC(F)(F)Oc1cccc(-c2cnc3ccc(NCC4CCOCC4)nn23)c1` [8-19, N-((tetrahydro-2H-pyran-4-yl)methyl)-3-(3-(trifluoromethoxy)phenyl)imidazo[1,2-b]pyridazin-6-amine] yielded an IC50 of 13 nM. `CC(C)(O)C(=O)N1CCC(CNc2ccc3ncc(-c4cccc(OC(F)(F)F)c4)n3n2)CC1` [8-20, 2-Hydroxy-2-methyl-1-(4-(((3-(3-(trifluoromethoxy)phenyl)imidazo[1,2-b]pyridazin-6-yl)amino)methyl)piperidin-1-yl)propan-1-one] gave an IC50 of 16 nM. Work on `O=C(CN1CCOCC1)N1CCC(CNc2ccc3ncc(-c4cccc(OC(F)(F)F)c4)n3n2)CC1` [8-21, 2-Morpholino-1-(4-(((3-(3-(trifluoromethoxy)phenyl)imidazo[1,2-b]pyridazin-6-yl)amino)methyl)piperidin-1-yl)ethanone] yielded an IC50 of 46 nM. With `O=C1CC(CNc2ccc3ncc(-c4cccc(OC(F)(F)F)c4)n3n2)CCN1` (stereo not drawn) [8-23, 4-(((3-(3-(Trifluoromethoxy)phenyl)imidazo[1,2-b]pyridazin-6-yl)amino)methyl)piperidin-2-one] the IC50 was 1630 nM. Compound `NCC1CCN(c2ccc3ncc(-c4cccc(OC(F)(F)F)c4)n3n2)C(=O)C1` (stereo not drawn) [8-24, 4-(Aminomethyl)-1-(3-(3-(trifluoromethoxy)phenyl)imidazo[1,2-b]pyridazin-6-y/)piperidin-2-one] has an IC50 of 34 nM. Compound `N[C@H]1CCCN(c2ccc3ncc(-c4cccc(OC(F)(F)F)c4)n3n2)C1` [8-25, (S)-1-(3-(3-(Trifluoromethoxy)phenyl)imidazo[1,2-b]pyridazin-6-yl)piperidin-3-amine] has an IC50 of 30 nM. Compound `FC(F)(F)Oc1cccc(-c2cnc3ccc(OCC4CCOCC4)nn23)c1` [8-28, 6-((Tetrahydro-2H-pyran-4-yl)methoxy)-3-(3-(trifluoromethoxy)phenyl)imidazo[1,2-b]pyridazine] has an IC50 of 553 nM. `FC(F)(F)c1cccc(-c2cnc3ccc(NC4CCOCC4)nn23)c1` [8-33, N-(Tetrahydro-2H-pyran-4-yl)-3-(3-(trifluoromethyl)phenyl)imidazo[1,2-b]pyridazin-6-amine] was tested, and the IC50 was 33 nM. `CO[C@H]1CC[C@H](Nc2ccc3ncc(-c4cccc(Cl)c4)n3n2)CC1` [8-38, 3-(3-Chlorophenyl)-N-(4-trans-methoxycyclohexyl)imidazo[1,2-b]pyridazin-6-amine] showed an IC50 of 18 nM. In the case of `Clc1cccc(-c2cnc3ccc(NC4CCOCC4)nn23)c1` [8-39, 3-(3-Chlorophenyl)-N-(tetrahydro-2H-pyran-4-yl)imidazo[1,2-b]pyridazin-6-amine], the IC50 is reported as 48 nM. With `O=S1(=O)CCC(CNc2ccc3ncc(-c4cccc(Cl)c4)n3n2)CC1` [8-40] the IC50 was 200 nM. Work on `CC(C)(O)CCOc1ccc2ncc(-c3cccc(OC(F)(F)F)c3)n2n1` [8-41, 2-Methyl-4-((3-(3-(Trifluoromethoxy)phenyl)imidazo[1,2-b]pyridazin-6-yl)oxy)butan-2-ol] yielded an IC50 of 226 nM. `COCCOc1ccc2ncc(-c3cccc(OC(F)(F)F)c3)n2n1` [8-42, 6-(2-Methoxyethoxy)-3-(3-(trifluoromethoxy)phenyl)imidazo[1,2-b]pyridazine] was tested, and the IC50 was 1970 nM. Work on `CN(C)CC(=O)N1CCC(CNc2ccc3ncc(-c4cccc(OC(F)(F)F)c4)n3n2)CC1` [8-45, 2-(dimethylamino)-1-(4-(((3-(3-(trifluoromethoxy)phenyl)imidazo[1,2-b]pyridazin-6-yl)amino)methyl)piperidin-1-yl)ethanone] yielded an IC50 of 16 nM. With `CC(C)(O)[C@H]1CC[C@H](Nc2ccn3ncc(-c4cccc(OC(F)(F)F)c4)c3n2)CC1` [8-47] the IC50 was 204 nM. For `C[C@]1(O)CC[C@H](Nc2ccn3ncc(-c4cccc(OC(F)(F)F)c4)c3n2)CC1` [8-48, 1-Methyl-4-((3-(3-(trifluoromethoxy)phenyl)pyrazolo[1,5-a]pyrimidin-5-yl)amino)-trans-cvclohexanol], the IC50 was 197 nM. With `CO[C@H]1CC[C@H](Nc2ccn3ncc(-c4cccc(OC(F)(F)F)c4)c3n2)CC1` [8-49, 4-(trans-Methoxycyclohexyl)-3-(3-(trifluoromethoxy)phenyl)pyazolo[1,5-a]pyrimidin-5-amine] the IC50 was 378 nM. `FC(F)(F)Oc1cccc(-c2cnn3ccc(NC4CCOCC4)nc23)c1` [8-50, N-(Tetrahydro-2H-pyran-4-yl)-3-(3-(trifluoromethoxy)phenyl)pyrazolo[1,5-a]pyrimidin-5-amine] showed an IC50 of 633 nM.
